Measured values: ChEMBL document CHEMBL3822388, “In vivo phenotypic drug discovery: applying a behavioral assay to the discovery and optimization of novel antipsychotic agents” (Medchemcomm, 2016)
One block for each compound: values may come before it. The source made the active and inactive calls. No cut-off for these calls is given here.

Assays:
Mus musculus [1] = assay: Antipsychotic activity in ip dosed mouse administered 15 mins prior to testing by SmartCube automated system based method; type: functional; settings: Mus musculus, ip; read-out: MED
Cytochrome P450 2D6 = Cytochrome P450 2D6 (Homo sapiens, UniProt P10635); assay: Inhibition of CYP2D6 in human liver microsomes assessed as reduction in dextromethorphan o-demethylation by LC-MS/MS analysis; type: ADME
Cytochrome P450 2C9 = Cytochrome P450 2C9 (Homo sapiens, UniProt P11712); assay: Inhibition of CYP2C9 in human liver microsomes assessed as reduction in tolbutamide 4-hydroxylation by LC-MS/MS analysis; type: ADME
[2] = biological target: D(2) dopamine receptor (Homo sapiens) (UniProt P14416); assay: Displacement of [3H]methyl-spiperone from human recombinant D2 receptor expressed in HEK293 cells at 10 uM after 60 mins by scintillation counting analysis; type: cell-based
Cytochrome P450 3A4 = Cytochrome P450 3A4 (Homo sapiens, UniProt P08684); assay: Inhibition of CYP3A4 in human liver microsomes assessed as reduction in midazolam 1-hydroxylation/testosterone 6beta-hydroxylation by LC-MS/MS analysis; type: ADME
[3] = Half life in mouse liver microsomes at 3 uM in presence of NADPH by LC-MS/MS analysis; type: ADME
[4] = Protein binding in mouse plasma at 5 uM by LC-MS/MS based equilibrium dialysis method; type: ADME, cell-free; settings: read-out: PPB (converted)
[5] = Protein binding in rat plasma at 5 uM by LC-MS/MS based equilibrium dialysis method; type: ADME, cell-free; settings: read-out: PPB (converted)
Mus musculus [6] = assay: Antipsychotic activity in mouse at 30 mg/kg, ip administered 15 mins prior to testing by SmartCube automated system based method relative to standard compound; type: functional
Cytochrome P450 2C19 = Cytochrome P450 2C19 (Homo sapiens, UniProt P33261); assay: Inhibition of CYP2C19 in human liver microsomes assessed as reduction in S-mephenytoin 4-hydroxylation by LC-MS/MS analysis; type: ADME
Mus musculus [7] = assay: Antipsychotic activity in mouse at 30 mg/kg, ip administered 15 mins prior to testing by SmartCube automated system based method relative to vehicle; type: functional
[8] = Half life in human liver microsomes at 3 uM in presence of NADPH by LC-MS/MS analysis; type: ADME
[9] = biological target: Voltage-gated inwardly rectifying potassium channel KCNH2 (Homo sapiens, UniProt Q12809); assay: Inhibition of human ERG
CYP1A = CYP1A (Homo sapiens, UniProt P04798+P05177); assay: Inhibition of CYP1A in human liver microsomes assessed as reduction in ethoxyresorufin o-deethylation by fluorescence assay; settings: probe ethoxyresorufin (O-deethylation)
[10] = Half life in rat liver microsomes at 3 uM in presence of NADPH by LC-MS/MS analysis; type: ADME
[11] = biological target: 5-hydroxytryptamine receptor 6 (Homo sapiens) (UniProt P50406); assay: Displacement of [3H]LSD from human recombinant 5-HT6 receptor expressed in CHO cells at 10 uM after 120 mins by scintillation counting analysis; type: cell-based
[12] = biological target: Sodium-dependent serotonin transporter (Homo sapiens) (UniProt P31645); assay: Displacement of [3H]imipramine from human recombinant 5-HT transporter expressed in CHO cells at 10 uM after 60 mins by scintillation counting analysis; type: cell-based
[13] = Solubility of the compound at pH 7.4; type: physicochemical; settings: buffer
Mus musculus [14] = assay: Effect on basal locomotor activity in C57Bl/6J mouse at 10 to 30 mg/kg, po; type: ADME, organism-based; settings: in vivo
[15] = biological target: T1, 5-hydroxytryptamine receptor 2A (Homo sapiens, UniProt P28223); assay: Displacement of [3H]ketanserin from human recombinant 5-HT2A receptor expressed in HEK293 cells at 10 uM after 60 mins by scintillation counting analysis; type: cell-based
[16] = biological target: Histamine H1 receptor (Homo sapiens) (UniProt P35367); assay: Displacement of [3H]pyrilamine from human recombinant H1 receptor expressed in HEK293 cells at 10 uM after 60 mins by scintillation counting analysis; type: cell-based
[17] = biological target: Adrenergic receptor alpha-1 (Rattus norvegicus) (UniProt P15823+P23944+P43140); assay: Displacement of [3H]prazosin from rat cerebral cortex adrenergic alpha1 receptor at 10 uM after 60 mins by scintillation counting analysis; type: tissue-based
Mus musculus [18] = assay: Antipsychotic activity in mouse at 10 mg/kg, ip administered 15 mins prior to testing by SmartCube automated system based method relative to standard compound; type: functional, organism-based
[19] = biological target: 5-hydroxytryptamine receptor 3A (Homo sapiens) (UniProt P46098); assay: Displacement of [3H]BRL 43694 from human recombinant 5-HT3 receptor expressed in CHO cells at 10 uM after 120 mins by scintillation counting analysis; type: cell-based
[20] = Fraction unbound in mouse plasma at 5 uM by LC-MS/MS based equilibrium dialysis method; type: ADME, cell-free
[21] = biological target: Sodium-dependent noradrenaline transporter (Homo sapiens) (UniProt P23975); assay: Displacement of [3H]nisoxetine from human recombinant norepinephrine transporter expressed in CHO cells at 10 uM after 120 mins by scintillation counting analysis; type: cell-based
[22] = biological target: Adrenergic receptor alpha-2 (Rattus norvegicus) (UniProt P22086+P19328+P22909); assay: Displacement of [3H]RX 821002 from rat cerebral cortex adrenergic alpha2 receptor at 10 uM after 60 mins by scintillation counting analysis; type: tissue-based
[23] = Chemical stability of the compound in 20 mM NH4Ac buffer solution at pH 7.1 after 96 hrs by HPLC analysis; type: physicochemical; settings: pH 7.1, 96 h
[24] = Drug metabolism in mouse liver microsomes assessed as formation of 4-(2-methylbenzo[b]thiophen-3-yl)pyrimidineat 3 uM in presence of NADPH by LC-MS/MS analysis; type: ADME
[25] = Fraction unbound in human plasma at 5 uM by LC-MS/MS based equilibrium dialysis method; type: ADME, cell-free
Mus musculus [26] = assay: Antipsychotic activity in C57Bl/6J mouse model of schizophrenia assessed as increase in prepulse inhibition of acoustic startle at 3 to 10 mg/kg, po administered 30 mins prior to testing relative to vehicle-treated control; type: functional, organism-based
Liver microsome = assay: Drug metabolism in human liver microsomes assessed as formation of 4-(2-methylbenzo[b]thiophen-3-yl)pyrimidineat 3 uM in presence of NADPH by LC-MS/MS analysis; type: ADME
[27] = biological target: 5-hydroxytryptamine receptor 7 (Homo sapiens) (UniProt P34969); assay: Displacement of [3H]LSD from human recombinant 5-HT7 receptor expressed in CHO cells at 10 uM after 120 mins by scintillation counting analysis; type: cell-based
[28] = biological target: T1, 5-hydroxytryptamine receptor 2A; assay: Antagonist activity at 5HT2A (unknown origin)
Mus musculus [29] = assay: Antipsychotic-like activity in C57Bl/6J mouse model of schizophrenia assessed as reversal of phencyclidine-induced locomotor activity at 3 to 30 mg/kg, po dosed 30 mins before administration of PCP measured for 60 mins by open field test; type: functional, organism-based
Mus musculus [30] = assay: Effect on basal locomotor activity in C57Bl/6J mouse at 3 mg/kg, po; type: ADME, organism-based; settings: in vivo
[31] = biological target: 5-hydroxytryptamine receptor 2B (Homo sapiens) (UniProt P41595); assay: Displacement of [3H]mesulergine from human recombinant 5-HT2B receptor expressed in CHO cells at 10 uM after 60 mins by scintillation counting analysis; type: cell-based
[32] = biological target: D(1A) dopamine receptor (Homo sapiens) (UniProt P21728); assay: Displacement of [3H]SCH 23390 from human recombinant D1 receptor expressed in CHO cells at 10 uM after 60 mins by scintillation counting analysis; type: cell-based
[33] = biological target: Sodium-dependent dopamine transporter (Homo sapiens) (UniProt Q01959); assay: Displacement of [3H]BTCP from human recombinant dopamine transporter expressed in CHO cells at 10 uM after 120 mins by scintillation counting analysis; type: cell-based
[34] = Chemical stability of the compound in 0.01 M HCl at pH 2 after 96 hrs by HPLC analysis; type: physicochemical; settings: buffer, pH 2, 96 h
Mus musculus [35] = assay: Antipsychotic activity in mouse at 3 to 30 mg/kg, ip dosed 15 mins prior to testing by SmartCube automated system based method relative to standard compound; type: functional, organism-based

Chain of Voltage-gated inwardly rectifying potassium channel KCNH2 (Q12809 whole entry): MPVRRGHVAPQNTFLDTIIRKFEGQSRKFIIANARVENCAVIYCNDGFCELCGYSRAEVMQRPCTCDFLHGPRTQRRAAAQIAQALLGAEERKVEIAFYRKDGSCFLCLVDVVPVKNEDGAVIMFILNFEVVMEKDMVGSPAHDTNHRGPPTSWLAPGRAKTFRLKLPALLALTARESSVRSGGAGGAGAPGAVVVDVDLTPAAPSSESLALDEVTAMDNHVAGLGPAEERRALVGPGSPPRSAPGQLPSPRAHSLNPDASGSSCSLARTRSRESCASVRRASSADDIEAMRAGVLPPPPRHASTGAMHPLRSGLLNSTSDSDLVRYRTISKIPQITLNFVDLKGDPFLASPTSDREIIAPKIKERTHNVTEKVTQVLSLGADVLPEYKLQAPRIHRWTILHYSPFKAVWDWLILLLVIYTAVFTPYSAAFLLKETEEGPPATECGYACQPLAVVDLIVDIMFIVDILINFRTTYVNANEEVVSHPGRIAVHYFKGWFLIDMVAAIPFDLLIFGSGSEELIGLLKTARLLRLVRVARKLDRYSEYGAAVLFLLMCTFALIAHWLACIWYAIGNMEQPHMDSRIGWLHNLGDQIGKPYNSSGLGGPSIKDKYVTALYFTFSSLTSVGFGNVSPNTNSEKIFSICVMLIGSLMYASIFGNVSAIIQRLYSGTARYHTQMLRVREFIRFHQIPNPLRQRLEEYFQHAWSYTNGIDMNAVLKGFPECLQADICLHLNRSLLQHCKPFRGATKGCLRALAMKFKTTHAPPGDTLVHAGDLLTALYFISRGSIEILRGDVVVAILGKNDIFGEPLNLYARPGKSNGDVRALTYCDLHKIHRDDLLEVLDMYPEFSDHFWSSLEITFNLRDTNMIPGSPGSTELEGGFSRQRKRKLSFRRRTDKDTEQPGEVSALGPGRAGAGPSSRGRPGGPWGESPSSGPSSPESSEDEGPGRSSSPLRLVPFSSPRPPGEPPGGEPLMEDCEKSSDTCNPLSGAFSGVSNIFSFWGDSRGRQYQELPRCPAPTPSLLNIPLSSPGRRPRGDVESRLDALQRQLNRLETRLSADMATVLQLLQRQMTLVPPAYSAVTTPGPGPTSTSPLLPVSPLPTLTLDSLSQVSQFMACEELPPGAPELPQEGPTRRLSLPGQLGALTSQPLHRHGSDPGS
Chain of Cytochrome P450 3A4 (P08684 whole entry): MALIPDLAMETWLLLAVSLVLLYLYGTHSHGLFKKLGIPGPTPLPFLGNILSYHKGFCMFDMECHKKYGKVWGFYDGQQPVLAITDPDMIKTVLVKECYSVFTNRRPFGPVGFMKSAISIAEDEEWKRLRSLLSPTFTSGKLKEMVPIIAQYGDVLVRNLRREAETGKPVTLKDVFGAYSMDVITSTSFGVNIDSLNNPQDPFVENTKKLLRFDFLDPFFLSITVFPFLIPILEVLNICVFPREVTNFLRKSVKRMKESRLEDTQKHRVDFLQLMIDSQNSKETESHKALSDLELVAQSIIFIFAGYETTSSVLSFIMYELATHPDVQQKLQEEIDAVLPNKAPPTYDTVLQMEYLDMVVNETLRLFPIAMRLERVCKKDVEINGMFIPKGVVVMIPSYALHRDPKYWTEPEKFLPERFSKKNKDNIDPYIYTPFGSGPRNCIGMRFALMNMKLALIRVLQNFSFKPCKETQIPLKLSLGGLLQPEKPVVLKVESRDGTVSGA
T1 sequence (P28223 whole entry): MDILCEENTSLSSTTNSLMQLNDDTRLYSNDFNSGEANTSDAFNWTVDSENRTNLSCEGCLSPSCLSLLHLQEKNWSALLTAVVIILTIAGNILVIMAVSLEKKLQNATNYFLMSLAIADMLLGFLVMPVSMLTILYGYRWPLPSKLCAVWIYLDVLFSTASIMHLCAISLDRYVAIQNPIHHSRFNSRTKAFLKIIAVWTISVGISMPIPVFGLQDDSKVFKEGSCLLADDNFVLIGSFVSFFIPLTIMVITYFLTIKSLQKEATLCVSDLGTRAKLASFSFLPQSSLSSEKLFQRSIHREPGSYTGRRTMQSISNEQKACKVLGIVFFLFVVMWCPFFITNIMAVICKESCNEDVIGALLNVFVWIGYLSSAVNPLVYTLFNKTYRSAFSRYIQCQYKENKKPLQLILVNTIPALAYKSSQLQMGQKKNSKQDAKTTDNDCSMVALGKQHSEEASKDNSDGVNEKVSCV
Chain of D(2) dopamine receptor (Homo sapiens) (P14416 whole entry): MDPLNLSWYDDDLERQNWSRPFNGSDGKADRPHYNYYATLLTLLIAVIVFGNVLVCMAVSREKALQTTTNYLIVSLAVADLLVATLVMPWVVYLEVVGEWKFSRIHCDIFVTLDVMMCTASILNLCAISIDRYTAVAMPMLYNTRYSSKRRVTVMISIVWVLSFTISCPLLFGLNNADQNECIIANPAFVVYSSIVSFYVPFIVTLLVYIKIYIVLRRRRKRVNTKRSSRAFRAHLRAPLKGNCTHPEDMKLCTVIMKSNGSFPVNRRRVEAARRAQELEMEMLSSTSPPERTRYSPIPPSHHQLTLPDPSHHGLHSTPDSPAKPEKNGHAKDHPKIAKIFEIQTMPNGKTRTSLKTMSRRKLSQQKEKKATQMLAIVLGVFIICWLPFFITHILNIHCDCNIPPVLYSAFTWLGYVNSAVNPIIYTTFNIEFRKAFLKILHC
Chain of Cytochrome P450 2C9 (P11712 whole entry): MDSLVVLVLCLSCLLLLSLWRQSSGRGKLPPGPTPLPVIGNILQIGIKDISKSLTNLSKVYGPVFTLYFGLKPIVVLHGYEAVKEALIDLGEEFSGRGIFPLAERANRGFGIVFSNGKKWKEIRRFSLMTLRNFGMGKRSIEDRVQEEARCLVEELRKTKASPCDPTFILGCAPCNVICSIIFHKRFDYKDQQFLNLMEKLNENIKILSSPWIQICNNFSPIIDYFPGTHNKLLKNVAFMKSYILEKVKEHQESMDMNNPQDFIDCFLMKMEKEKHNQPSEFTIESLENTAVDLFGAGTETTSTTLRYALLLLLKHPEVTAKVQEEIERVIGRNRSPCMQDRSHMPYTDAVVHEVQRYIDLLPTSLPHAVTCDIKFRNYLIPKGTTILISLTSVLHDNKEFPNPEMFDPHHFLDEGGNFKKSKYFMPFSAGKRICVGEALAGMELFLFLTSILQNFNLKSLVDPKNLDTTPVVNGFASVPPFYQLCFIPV
Chain of Cytochrome P450 2D6 (P10635 whole entry): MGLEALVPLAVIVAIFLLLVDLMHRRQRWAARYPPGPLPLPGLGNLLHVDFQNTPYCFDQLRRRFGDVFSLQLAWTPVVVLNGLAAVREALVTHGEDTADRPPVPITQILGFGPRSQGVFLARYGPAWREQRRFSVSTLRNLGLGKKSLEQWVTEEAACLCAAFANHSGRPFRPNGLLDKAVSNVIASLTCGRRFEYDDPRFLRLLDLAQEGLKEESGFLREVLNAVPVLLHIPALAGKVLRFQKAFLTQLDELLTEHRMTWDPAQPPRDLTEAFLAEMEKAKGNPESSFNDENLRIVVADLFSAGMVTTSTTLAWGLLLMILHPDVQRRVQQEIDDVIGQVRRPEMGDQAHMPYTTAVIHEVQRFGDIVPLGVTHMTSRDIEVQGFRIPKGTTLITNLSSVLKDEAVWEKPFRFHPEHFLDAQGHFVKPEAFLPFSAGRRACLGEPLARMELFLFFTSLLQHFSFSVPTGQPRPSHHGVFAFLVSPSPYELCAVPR
Chain of Cytochrome P450 2C19 (P33261 whole entry): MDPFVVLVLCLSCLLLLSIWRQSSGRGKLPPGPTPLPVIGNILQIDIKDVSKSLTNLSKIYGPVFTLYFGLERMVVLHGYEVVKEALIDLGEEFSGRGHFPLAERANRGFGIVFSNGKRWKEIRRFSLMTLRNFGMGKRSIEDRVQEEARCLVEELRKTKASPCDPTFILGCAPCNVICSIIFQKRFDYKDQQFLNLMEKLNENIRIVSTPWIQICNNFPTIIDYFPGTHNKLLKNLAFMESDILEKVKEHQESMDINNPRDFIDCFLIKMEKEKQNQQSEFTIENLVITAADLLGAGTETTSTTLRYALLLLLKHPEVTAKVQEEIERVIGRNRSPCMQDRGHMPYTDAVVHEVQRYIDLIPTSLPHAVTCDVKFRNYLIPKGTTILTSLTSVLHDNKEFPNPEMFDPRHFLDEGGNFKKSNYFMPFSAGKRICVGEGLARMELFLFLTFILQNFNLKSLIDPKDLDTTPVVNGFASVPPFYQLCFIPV
Chain of 5-hydroxytryptamine receptor 6 (Homo sapiens) (P50406 whole entry): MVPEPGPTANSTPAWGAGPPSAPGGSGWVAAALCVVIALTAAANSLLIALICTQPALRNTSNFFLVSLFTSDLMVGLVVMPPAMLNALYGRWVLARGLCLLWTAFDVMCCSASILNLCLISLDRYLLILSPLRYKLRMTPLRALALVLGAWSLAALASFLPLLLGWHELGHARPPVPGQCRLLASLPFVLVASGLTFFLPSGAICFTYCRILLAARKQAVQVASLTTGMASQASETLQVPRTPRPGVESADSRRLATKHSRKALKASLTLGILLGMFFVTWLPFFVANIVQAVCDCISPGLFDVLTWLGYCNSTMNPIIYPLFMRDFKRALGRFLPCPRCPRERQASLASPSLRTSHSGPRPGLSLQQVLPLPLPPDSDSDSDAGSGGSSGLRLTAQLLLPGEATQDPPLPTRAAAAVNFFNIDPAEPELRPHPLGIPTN
Chain of D(1A) dopamine receptor (Homo sapiens) (P21728 whole entry): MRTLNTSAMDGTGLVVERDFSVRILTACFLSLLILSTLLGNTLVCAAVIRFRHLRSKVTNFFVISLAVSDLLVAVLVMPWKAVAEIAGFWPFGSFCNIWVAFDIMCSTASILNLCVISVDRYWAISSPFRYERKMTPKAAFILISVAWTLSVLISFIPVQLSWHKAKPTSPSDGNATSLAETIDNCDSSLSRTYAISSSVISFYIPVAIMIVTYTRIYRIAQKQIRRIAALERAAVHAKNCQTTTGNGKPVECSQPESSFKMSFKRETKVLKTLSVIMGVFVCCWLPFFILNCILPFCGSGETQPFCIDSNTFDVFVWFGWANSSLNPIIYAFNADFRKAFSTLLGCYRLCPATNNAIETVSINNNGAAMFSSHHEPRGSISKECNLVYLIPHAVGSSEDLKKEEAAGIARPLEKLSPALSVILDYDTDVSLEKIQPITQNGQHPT

SMILES: Cc1sc2c(c1C1C=CN=CN1)CCC2.Cl (centres undefined)
minimal effective dose (Mus musculus [1]): 10 mg/kg

IC50 (Cytochrome P450 2D6): 6.3 µM | IC50 (Cytochrome P450 2C9): > 25 µM | inhibition [2]: inactive | IC50 (Cytochrome P450 3A4): 19.8 µM | half-life at 3 µM [3]: 2.58 h | fraction unbound at 5 µM [4]: 0.24 | fraction unbound at 5 µM [5]: 0.3 | IC50 (Cytochrome P450 2C19): 12.7 µM | half-life at 3 µM [8]: 0.8 h | IC50 (CYP1A): > 25 µM | half-life at 3 µM [10]: 0.65 h
SMILES: Cc1cc(C2C=CN=CN2)c(C)s1.Cl (racemic)
Activity (Mus musculus [6]): 40% | Activity (Mus musculus [7]): >95% | IC50 ([9]; read-out: IC50): > 25 µM

inhibition [11]: 61% | IC50 (Cytochrome P450 2D6): 3.1 µM | IC50 (Cytochrome P450 2C9): 6.9 µM | inhibition [2]: 0% | IC50 (Cytochrome P450 3A4): 11 µM | inhibition [12]: 94% | solubility [13]: > 100 µg/mL | half-life at 3 µM [3]: 4.03 h | inhibition [15]: 99% | inhibition [16]: 86% | inhibition [17]: 88% | inhibition [19]: 64% | fraction unbound at 5 µM [20]: 0.18 | inhibition [21]: 51% | inhibition [22]: 97% | Stability [23]: Stable | Drug metabolism [24]: metabolite_notdetected | fraction unbound at 5 µM [25]: 0.3 | Drug metabolism (Liver microsome): metabolite_notdetected | inhibition [27]: 94% | IC50 [28]: 0.356 µM | IC50 (Cytochrome P450 2C19): 25 µM | inhibition [31]: 81% | inhibition [32]: 77% | inhibition [33]: 78% | half-life at 3 µM [8]: 2.28 h | Stability [34]: Stable | IC50 (CYP1A): 6.9 µM | half-life at 3 µM [10]: 0.483 h
SMILES: Cc1sc2ccccc2c1[C@@H]1C=CN=CN1
Activity (Mus musculus [14]): Toxic | Activity (Mus musculus [18]): Active | Activity (Mus musculus [26]): Active | Activity (Mus musculus [6]): Active | Activity (Mus musculus [29]): Active | Activity (Mus musculus [30]): Non-toxic | IC50 ([9]; human): > 25 µM

SMILES: Fc1c(C2NC=Nc3ccccc32)sc2ccccc12 (centres undefined)
Activity (Mus musculus [6]): Active

SMILES: Cc1csc(-c2ccncn2)c1C
Activity (Mus musculus [35]): Active

SMILES: Cc1sc(C2C=CN=CN2)c(C)c1C.Cl (centres undefined)
minimal effective dose (Mus musculus [1]): 30 mg/kg

SMILES: Cc1sc2c(Cl)cccc2c1C1C=CN=CN1.Cl (centres undefined)
minimal effective dose (Mus musculus [1]): 30 mg/kg

SMILES: Cc1sc2ccccc2c1C1NC(N)=NC=C1Cl.Cl (centres undefined)
minimal effective dose (Mus musculus [1]): 30 mg/kg

SMILES: Cc1sc2cc(Cl)ccc2c1C1C=CN=CN1.Cl (centres undefined)
minimal effective dose (Mus musculus [1]): 30 mg/kg

SMILES: Cc1csc(C2C=CN=CN2)c1C (stereo in doubt; 12a)
Activity (Mus musculus [35]): Active

SMILES: Brc1c(C2C=CN=CN2)sc2ccccc12 (centres undefined)
Activity (Mus musculus [6]): Active

SMILES: Cc1c(F)sc(C2C=CN=CN2)c1C.Cl (centres undefined)
minimal effective dose (Mus musculus [1]): 10 mg/kg

SMILES: Clc1c(C2C=CN=CN2)sc2ccccc12 (centres undefined)
Activity (Mus musculus [6]): Active

SMILES: CC1=NC=C(Cl)C(c2sc3ccccc3c2C)N1 (centres undefined)
Activity (Mus musculus [6]): Active

SMILES: Cc1sc2ccccc2c1C1C=CN=CN1.Cl (centres undefined)
minimal effective dose (Mus musculus [1]): 3 mg/kg

SMILES: Cc1c(C2C=CN=CN2)sc2ccccc12 (centres undefined)
Activity (Mus musculus [6]): Active
